This is an account of results in patent publication US9662388B2, “Methods and systems for treating cell proliferation disorders using plasmonics enhanced photospectral therapy (PEPST) and exciton-plasmon enhanced phototherapy (EPEP)” (Duke University, priority 2008, dated 2017).

For experiment [1] the following is noted: average over λex 224, 266, 280 nm.
For experiment [2] the following is noted: cited from earlier work.

Like-named read-outs stand apart in the source and are kept apart here. Non-standard residues stand in square brackets, D forms with d. Residues, ends and D or L forms follow the SMILES beside them. Bpa = N[CH](Cc1ccc(C(=O)c2ccccc2)cc1)C(=O)O; 2Nal = N[CH](Cc1ccc2ccccc2c1)C(=O)O; Aib = CC(C)(N)C(=O)O

On to `CC(NC(=O)C(C)(C)NC(=O)C(Cc1ccc(C(=O)c2ccccc2)cc1)NC(=O)C(C)(C)NC(=O)C(Cc1ccc2ccccc2c1)NC(=O)C(C)(C)NC(=O)C(C)NC(=O)C(C)(C)N)C(=O)O` (single isomer, unassigned) [Compound 2B], for which the “kSSET (Average)” value in experiment [1] was 3.9e+07 s⁻¹. The kSSET in experiment [2] (λex 224 nm) was 3.1e+07 s⁻¹; in experiment [2] (λex 266 nm), 3.9e+07 s⁻¹; in experiment [2] (λex 280 nm), 4.7e+07 s⁻¹.

For `CC1NC(=O)C(C)(C)NC(=O)C(Cc2ccc(C(=O)c3ccccc3)cc2)NC(=O)C(C)(C)NC(=O)C(C)NC(=O)C(C)(C)NC(=O)C(Cc2ccc3ccccc3c2)NC(=O)C(C)(C)NC1=O` (centres unmarked) [Compound 1A] (cyclo([Aib][2Nal][Aib]A[Aib][Bpa][Aib]A); configuration not given here), in experiment [1], the “kSSET (Average)” value is 3.67e+07 s⁻¹. Also, the kSSET in experiment [2] (λex 224 nm) was 3.8e+07 s⁻¹; in experiment [2] (λex 266 nm), 3.6e+07 s⁻¹; in experiment [2] (λex 280 nm), 3.6e+07 s⁻¹.

`CC(NC(=O)C(C)(C)NC(=O)C(Cc1ccc(C(=O)c2ccccc2)cc1)NC(=O)C(C)(C)NC(=O)C(C)NC(=O)C(C)(C)NC(=O)C(Cc1ccc2ccccc2c1)NC(=O)C(C)(C)N)C(=O)O` (centres unmarked) [Compound 1B] (H-[Aib][2Nal][Aib]A[Aib][Bpa][Aib]A-OH; configuration not given here): the kSSET in experiment [2] (λex 224 nm) is 2.44e+08 s⁻¹; in experiment [2] (λex 266 nm), 1.8e+08 s⁻¹; in experiment [2] (λex 280 nm), 1.36e+08 s⁻¹.
